Columns and labels:
dystrophin exon 23 = test: RT-PCR and quantitative real time PCR of exon skipping in mdx mouse tissues; format: in vivo, mdx mice; settings: diaphragm; single 12.5 mg/kg IV, 2 weeks
Source text: (§1) Given the potency of Pip5e-PMO in heart tissue, the aim of altering the sequence of the hydrophobic core (whilst maintaining the 5-aa length) was to identify peptides that might be more efficient at lower doses. These modifications included inversion of the hydrophobic region (Pip6a), substitution of tyrosine by isoleucine (Pip6b), substitution of glutamine in the Pip6a sequence by displacement of the arginine immediately flanking the core in the first arginine-rich flanking region (Pip6e), and a scrambled hydrophobic core sequence (Pip6f). All Pip6 peptide-PMO conjugates were administered to mdx mice as single 12.5 mg/kg intravenous injections via the tail vein and tissues were harvested 2 weeks later and assessed for activity at both RNA and protein levels.
The RTPCR representative images (FIG. 34d) illustrate high exon skipping efficiency in all tissues analysed. This is better shown by Real Time PCR (qRT-PCR) results for the quadriceps, diaphragm and heart (FIG. 34c). The delta 23 transcript is normalised against ‘total dystrophin’ for each muscle group (n=3). […] Western blots (FIG. 34e) were performed on the tissues of each mouse and were quantified against a 50% and 10% C57BL10 control.
Four and a half month old to 5½ month old mdx mice were used in these experiments (n=3). […]

dystrophin [1] = settings: single 25 mg/kg administration; cited from earlier work
[2] = Serum stability of Pip-PMO conjugates in 100% mouse serum (HPLC, MALDI-TOF); format: in vitro ADME; settings: 37° C.
Procedure: Serum stability may be measured by adding an aliquot of Pip-PMO (10 nmoles) to 100% mouse serum (100 μL) and incubating at 37° C. for 120 or 240 min. Each reaction is diluted with IM guanidinium-HCl solution (300 μL) and ice-cold acetonitrile (600 μL). Samples are mixed and kept at −20° C., and the precipitated serum proteins separated by centrifugation (13000 rpm, 5 min). After centrifugation, the supernatant is collected, lyophilized and the residue dissolved in water for analysis for peptide degradation by MALDI-TOF mass spectrometry and by reversed phase HPLC. HPLC conditions are: Column, C18 reversed-phase (250×4.6 mm); Solvent A, 0.1% TFA, Solvent B, 90% Acetonitrile, 10% solvent A; Gradient, 10%-50% solvent B in 25 minutes.
Serum stability was measured by adding an aliquot of Pip-PMO (10 nmoles) to 100% mouse serum (100 μL) and incubating at 37° C. for 120 or 240 min. Each reaction was diluted with IM guanidinium-HCl solution (300 μL) and ice-cold acetonitrile (600 μL). Samples were mixed and kept at −20° C., and the precipitated serum proteins separated by centrifugation (13000 rpm, 5 min). After centrifugation, the supernatant was collected, lyophilized and the residue dissolved in water for analysis for peptide degradation by MALDI-TOF mass spectrometry and by reversed phase HPLC. […]

dystrophin [3] = test: Immunohistochemical staining and quantification of dystrophin in mdx mice after single IV injection; format: in vivo; settings: heart; mdx mice, single 12.5 mg/kg IV, 2 weeks; relative to laminin, normalised to C57BL10
Source text: as §1
Immunohistochemical staining quantification (FIGS. 34a, b) was performed as previously described [Malerba, A., et al., Chronic systemic therapy with low-dose morpholino oligomers ameliorates the pathology and normalizes locomotor behavior in mdx mice. Mol Ther, 2011. 19(2): p. 345-54; Arechavala-Gomeza, V., et al., Immunohistological intensity measurements as a tool to assess sarcolemma-associated protein expression. Neuropathol Appl Neurobiol, 2010. 36(4): p. 265-74.] and was achieved by taking 4 representative frames of the dystrophin staining and correlating this with laminin staining for each section (n=3) of the quadriceps, diaphragm and heart for each peptide-PMO treatment. Untreated mdx and treated mdx mice were normalised to C57BL10 mice. This method allows comparison of the staining intensity of dystrophin at the sarcolemma relative to laminin for each treatment group. Intensity ratios are normalised to C57BL10 samples and each region of interest at the sarcolemma (120 regions for each treatment group) is plotted on a scatter graph. […]
Transverse sections of tissue samples were cut (8 μm thick) for the examination of dystrophin expression. For dystrophin visualisation and quantification, sections were co-stained with rabbit-anti-dystrophin (Abcam) and rat anti-laminin (Sigma), and detected by goat-anti-rabbit IgG Alexa 594 and goat-anti-rat IgG 488 secondary antibodies respectively (Invitrogen). […] Quantitative immunohistochemistry was performed as previously described [Malerba, A., et al., Chronic systemic therapy with low-dose morpholino oligomers ameliorates the pathology and normalizes locomotor behavior in mdx mice. […] For quantification, 4 representative frames of the dystrophin and correlating laminin were taken for each section (n=3) of the quadriceps, diaphragm and heart for each treatment. […] The minimum and maximum fluorescence intensity for 120 regions were recorded for each treatment. […]

RXRRBRRXRILFQYRXRBRXRBC [Pip5e-PMO]
Δ23 exon skipping by qRT-PCR (dystrophin exon 23): highest exon skipping
dystrophin protein restoration in all muscle types, including heart (dystrophin [1]): high levels
stability in 100% mouse serum ([2]; 120 min (2 h), HPLC and MALDI-TOF): unchanged Pip-PMO conjugate
levels of PMO conjugated to fragments of peptide ([2]; 100% mouse serum, 120 minutes): very similar to that for (RXRRBR)2XB-PMO
percent recovery score (% RS), dystrophin immunostaining (dystrophin [3]): 17.32%
